According to ChEMBL document CHEMBL1156964, “Bioconjugates of curcumin display improved protection against glutathione depletion mediated oxidative stress in a dopaminergic neuronal cell line: Implications for Parkinson's disease” (2010):
The source made the active and inactive calls. The calls are words filed in the database; no cut-off is given here.

Assays:
[1] = Increase in GSH level in rat N27 cells at 0.5 uM after 24 hrs; format: functional
[2] = Neuroprotective effect against rat N27 cells assessed as reduction of BSO-induced increase in hydrogen peroxide level at 0.5 uM after 24 hrs using FOX1 reagent; format: functional; parameters: scale not given: the % may be the effect or the level left
[3] = Neuroprotective effect in rat N27 cells assessed as Inhibition of BSO-induced GSH depletion at 0.5 uM after 24 hrs by DTNB recycling method relative to control; format: functional; details: N27, 24 h
N27 [4] = assay: Neuroprotective effect against rat N27 cells assessed as reduction of BSO-induced reduction of GST activity at 0.5 uM treated 24 hrs after BSO withdrawal relative to control; format: functional, cell-based
[5] = Neuroprotective effect against rat N27 cells assessed as reduction of BSO-induced increase in reactive oxygen species level at 0.5 uM after 24 hrs by DCFDA fluorescence assay relative to control; format: functional; parameters: scale not given: the % may be the effect or the level left
[6] = Neuroprotective effect against rat N27 cells assessed as reduction of BSO-induced increase in reactive oxygen species level at 0.5 uM treated 24 hrs after BSO withdrawal by DCFDA fluorescence assay relative to control; format: functional; parameters: scale not given: the % may be the effect or the level left
[7] = Neuroprotective effect against rat N27 cells assessed as reduction of BSO-induced increase in MDA level at 0.5 uM by thiobarbituric acid reaction method after 24 hrs BSO withdrawal relative to control; format: functional; parameters: scale not given: the % may be the effect or the level left
N27 [8] = assay: Neuroprotective effect against rat N27 cells assessed as reduction of BSO-induced reduction of GST activity at 0.5 uM relative to control; format: functional, cell-based
N27 [9] = assay: Increase in ROS level in rat N27 cells at 0.5 uM by DCFDA fluorescence assay; format: functional, cell-based
[10] = Neuroprotective effect against rat N27 cells assessed as reduction of BSO-induced increase in MDA level at 0.5 uM after 24 hrs by thiobarbituric acid reaction method relative to control; format: functional; parameters: scale not given: the % may be the effect or the level left
[11] = Neuroprotective effect against rat N27 cells assessed as reduction of BSO-induced increase in hydrogen peroxide level at 0.5 uM treated 24 hrs after BSO withdrawal using FOX1 reagent relative to control; format: functional; parameters: scale not given: the % may be the effect or the level left

| Structure (SMILES) | Activity [1] [%] | Activity [2] [%] | inhibition at 0.5 µM [3] [%] | Activity (N27 [4]) | Activity [5] [%] | Activity [6] [%] | Activity [7] [%] | Activity (N27 [8]) | Activity (N27 [9]) | Activity [10] [%] | Activity [11] [%] |
| --- | --- | --- | --- | --- | --- | --- | --- | --- | --- | --- | --- |
| COc1cc(/C=C/C(=O)CC(=O)/C=C/c2ccc(O)c(OC)c2)ccc1O [CURCUMIN] | 30 | 50 | 78 | Active | 45 | 50 | 65 | Active | inactive | 40 | – |
| COc1cc(/C=C/C(=O)CC(=O)/C=C/c2ccc(OC(=O)[C@@H](N)C(C)C)c(OC)c2)ccc1OC(=O)[C@@H](N)C(C)C | 50 | – | 72 | Active | 60 | 70 | 80 | Active | inactive | 30 | 80 |
| COc1cc(/C=C/C(=O)CC(=O)/C=C/c2ccc(OC(=O)/C=C/C=C/c3ccc(O)c(O)c3)c(OC)c2)ccc1OC(=O)/C=C/C=C/c1ccc(O)c(O)c1 | 25 | 50 | 78 | Active | 65 | 55 | 75 | Active | inactive | 50 | – |
| COc1cc(/C=C/C(=O)CC(=O)/C=C/c2ccc(OC(=O)[C@@H](N)CCC(=O)O)c(OC)c2)ccc1OC(=O)[C@@H](N)CCC(=O)O | 64 | 50 | 83 | Active | 90 | 80 | 90 | Active | inactive | 50 | – |
